What was measured:
[1] = system: HeLa cells; experiment: Peak subG1 fraction by flow cytometry after declustering drugs, HeLa cells; format: cell-based
Protocol: (§1) To evaluate the impact of putative declustering drugs on cell cycle progression and hypodiploidy (<2N DNA content, which may indicate apoptotic cells), MDA-MB-231 (231), PC3, and HeLa cells were treated with different concentrations of declustering drugs, stained with propidium iodide, labeled with anti-MPM2 antibody, and then assessed by flow cytometry at multiple time points over 48 hr. […] The duration, highest degree, and rapidity of onset of MA varied between drugs, drug concentrations, and cell lines (data not shown). In general, the maximum MA achieved was less pronounced in Nos- and PJ-treated cells. Drug-induced onset of MA was corroborated by substantial increases in cyclin B1 levels in all cell lines. For most cases, prolonged MA (˜24 hr in duration) was followed by a substantial increase in the subG1 population fraction. […] Instances where the subGl fraction was elevated without cleaved caspase-3 may either represent caspase-independent cell death or the presence of hypodiploid cells whose fate is unclear. In general, no consistent associations between the extent, duration, or timing of MA within drugs or across cell lines was found.

[2] = system: PC3 cells; experiment: Peak subG1 fraction by flow cytometry after declustering drugs, PC3 cells; format: cell-based
Protocol: as §1

[3] = system: adult human dermal fibroblasts (HDFs); experiment: Peak subG1 fraction after declustering drugs, non-malignant HDFs; format: cell-based; settings: for Peak subG1 percents over 48 h: HDF; for death in cancer cell lines vs. HDFs: both concentrations
Protocol: as §1
(§2) To determine whether the CA-inducing activity of declustering drugs is restricted to cancer cells, two non-malignant cell lines, mammary fibrocystic (MCF10A) cells and adult human dermal fibroblasts (HDFs) were treated with these drugs. […] In comparison, 10 and 25 µM RBN increased peak CA over controls in interphase cells (p<0.001 and p=0.001, respectively), with the lower concentration dramatically augmenting peak CA to 56% of cells versus 15% for the higher dose (FIG. 13, panel B).
In HDFs, all the drugs tested increased peak subG1 over controls in a significant fashion (p<0.01 for all) (Table 2). […] Thus, it appears that there may be clinically relevant therapeutic windows for these drugs depending on the type of cancer and the drug dosage.

[4] = system: adult human dermal fibroblasts (HDFs); experiment: Centrosome amplification (CA) by microscopy, HDFs; format: cell-based; settings: for peak CA: interphase HDFs
Protocol: Consequently, CA was assessed in cultures treated with different concentrations of declustering drugs for 6, 12, 18, or 24 h and untreated controls via microscopy. Centrosomes were identified by γ-tubulin and centrin-2 colocalization at discrete foci.
as §2

[5] = system: N1E-115 cells; experiment: Interphase declustering index (DI) in N1E-115 cells; format: cell-based, murine; settings: 6-h treatment, 25 interphase cells, drugs at their respective IC50 concentrations
Protocol: To evaluate their effect on interphase clustering, N1E-115 cells were treated with these drugs at their respective IC50 concentrations for 0, 3, 6 and 9 h and co-immunostained for γ-tubulin and α-tubulin to evaluate centrosomal spread and microtubule nucleation status, respectively.
Cell cycle phases were further evaluated via lamin A/C immunostaining to distinguish interphase declustering events from prophase centrosomal spread. To quantitate the spread of the interphase centrosomal cluster, a 3D reconstruction of z-stack images of 25 randomly-selected interphase cells from the 6-h treatment group of each drug were generated. By defining an ROI (region of interest) around the interphase centrosomal cluster, the volume of the cluster spread was calculated using Volocity software. Likewise, defining an ROI using the cell periphery provided the cell volume.

[6] = system: ZR-75-30 cells with amplified centrosomes (ZR-A); experiment: Sub-G1 population in ZR-75-30 cells with amplified centrosomes (ZR-A) versus parent cells; format: cell-based; settings: 25 μM, 48 h
Protocol: Panel A depicts representative DNA histograms comparing cell-cycle kinetics of ZR-75-30 cells and ZR-A cells treated with bromonoscapine (BN, 25 μM), griseofulvin (GF, 25 μM) or PJ34 (25 μM), respectively for 48 h. […] Panel B depicts a quantitative comparison of sub-G1 population in ZR-75-30 and ZR-A cells upon treatment with the three drugs with the same concentration (25 μM) for the same duration (48 h).
Accordingly, these cells can be pharmacologically manipulated with aphidicolin to generate extra centrosomes. […] Following aphidicolin wash-out, cells were stained using anti-centrin-2 antibodies to verify extra centrosomes by immunofluorescence confocal microscopy. About ˜60% ZR-75-30 cells generated extra centrosomes (6-8 per cell) and were evaluated for their sensitivity to the three drugs, griseofulvin, bromonoscapine, and PJ34, and compared with parent ZR-75-30 cells with normal centrosomes.

[7] = system: 231 cells; experiment: Centrosome amplification (CA) by microscopy (γ-tubulin/centrin-2 foci), 231 cells; format: cell-based, human
Protocol: Consequently, CA was assessed in cultures treated with different concentrations of declustering drugs for 6, 12, 18, or 24 h and untreated controls via microscopy. Centrosomes were identified by γ-tubulin and centrin-2 colocalization at discrete foci. […] The peak percent CA detected over 24 h is shown in FIG. 13 (only statistically significant (P<0.05) increases over control values are represented in the Figures). To better understand the “potency” of drug-induced CA with time, the average fold change in CA over controls over 24 h was assessed (FIG. 12, panel A), whereby the extent of CA across time points (i.e., 6, 12, 18, and 24 hr) was averaged and then divided by the extent of CA in control (i.e., 0 hr). All of the drugs at least doubled the peak extent of CA in all cell lines tested (FIG. 12, panel A), although the final extent of CA could be small or large in magnitude depending on the initial centrosomal burden as shown in FIG. 11. […] The peak extent in interphase HeLa cells was somewhat less at 30.7% and 48.1% for 10 and 25 μM RBN, respectively (FIG. 13, panel A). For Nos and BN, there was no major difference in CA levels in interphase versus mitotic cells.

[8] = system: PLK4, Cyclin E, and Aurora A; experiment: Western blotting of markers of centrosome amplification; format: cell-based; settings: PC3 cells, 25 μM

Compound	Peak subG1 percents over 48 h ([1]; 10 μM) [%]	maximum (peak) subG1 fraction relative to control ([1]; 10 μM) [× control]	Peak subG1 percents over 48 h ([1]; 25 μM) [%]	Peak subG1 percents over 48 h ([2]; 10 μM) [%]	Peak subG1 percents over 48 h ([2]; 25 μM) [%]	Peak subG1 percents over 48 h ([3]; 10 μM) [%]	Peak subG1 percents over 48 h ([3]; 25 μM) [%]	death in cancer cell lines vs. HDFs [3]	interphase declustering index (DI): ratio of average cluster volume to average cell volume [5]	also measured
CN(C)CC(=O)Nc1ccc2[nH]c(=O)c3ccccc3c2c1 [PJ, PJ-34]	48.5	4.8	64.4	62.4	48.4	13.6	28.2	more death in all cancer cell lines vs. HDFs	0.14	extent of CA over controls ([4]; HDFs, any of the concentrations or time points assessed): no significant impact on CA; sub-G1 population versus parent ZR-75-30 cells [6]: much higher sub-G1 population compared to parent ZR-75-30 cells
reduced-9-bromonoscapine [RBN]	54.1	9	75.6	80.7	73.0	35.9	39.9	more death in 231 cells	0.36	maximum (peak) subG1 fraction relative to control ([2]; 10 μM): 8 × control; change of peak CA extent over controls ([7]; 231 cells, 25 μM): slightly more than doubled; final extent of CA ([7]; 231 cells, 25 μM, cell cycle stage not stated): around 90%; maximum extent of CA ([7]; interphase 231 cells, 10 μM): 31%; maximum extent of CA ([7]; interphase 231 cells, 25 μM): 87%; increase in CA over controls ([7]; mitotic 231 cells, 10 μM): ~2.5 fold; maximum extent of CA ([7]; mitotic 231 cells, 10 μM): 56%; increase in CA over controls ([7]; mitotic 231 cells, 25 μM): ~2.0 fold; maximum extent of CA ([7]; mitotic 231 cells, 25 μM): 96%; peak CA ([4]; 10 μM): 56 % of cells; peak CA ([4]; 25 μM): 15%; extent of CA ([4]; mitotic HDFs, 10 μM): 10%; extent of CA versus controls ([4]; mitotic HDFs, 25 μM): Only 10 but not 25 μM RBN increased the extent of CA in mitotic cells; expression of Cyclin E and PLK4 [8]: increased Cyclin E and PLK4 expression

Source: patent US10242153B2, “Method for determining the risk profile of neoplastic tissue” (NOVAZOI THERANOSTICS, priority 2014, dated 2019)
